pIC50: −log10 of the molar value.
What was measured:
CYP1B1 = molecular target: T1, CYP1B1 (Homo sapiens, UniProt Q16678); test: Inhibition of recombinant human CYP1B1 expressed in bacterial microsomes co-expressing P450 reductase at 3 uM using 7-ethyl-O-resorufin as substrate after 45 mins in presence of NADPH by fluorescence assay relative to control; details: probe 7-ethyl-O-resorufin
T1 sequence (Q16678 whole entry): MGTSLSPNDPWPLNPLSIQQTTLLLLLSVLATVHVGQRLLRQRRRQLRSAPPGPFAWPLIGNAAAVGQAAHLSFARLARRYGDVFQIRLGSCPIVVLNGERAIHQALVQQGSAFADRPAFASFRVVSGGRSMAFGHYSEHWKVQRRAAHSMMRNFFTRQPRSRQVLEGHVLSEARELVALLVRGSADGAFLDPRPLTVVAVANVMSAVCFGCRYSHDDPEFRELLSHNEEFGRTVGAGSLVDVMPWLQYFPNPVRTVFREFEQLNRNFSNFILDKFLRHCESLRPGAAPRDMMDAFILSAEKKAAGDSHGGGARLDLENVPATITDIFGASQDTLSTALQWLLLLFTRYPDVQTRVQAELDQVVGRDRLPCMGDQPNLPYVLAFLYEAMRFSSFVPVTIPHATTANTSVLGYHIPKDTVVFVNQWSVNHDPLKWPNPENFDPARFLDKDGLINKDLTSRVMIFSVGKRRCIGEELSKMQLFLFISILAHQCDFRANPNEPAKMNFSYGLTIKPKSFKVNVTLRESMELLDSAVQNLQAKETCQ

Cytochrome P450 1B1 = molecular target: T2, Cytochrome P450 1B1 (Homo sapiens, UniProt Q16678); test: Inhibition of recombinant human CYP1B1 expressed in bacterial microsomes co-expressing P450 reductase using 7-ethyl-O-resorufin as substrate after 45 mins in presence of NADPH by fluorescence assay
T2 sequence (Q16678 whole entry): T1 sequence (Q16678 whole entry)

COc1ccc2c(c1)CC[C@@H]1[C@@H]2CC[C@]2(C)C(=O)CC[C@@H]12
inhibition at 0.75 h, 3 µM (CYP1B1): 2%

C[C@]12CC[C@@H]3c4cc(F)c(O)cc4CC[C@H]3[C@@H]1CC[C@@H]2O
inhibition at 0.75 h, 3 µM (CYP1B1): 28.7%

C[C@]12CC[C@@H]3c4ccc(O)c(F)c4CC[C@H]3[C@@H]1CC[C@@H]2O
inhibition at 0.75 h, 3 µM (CYP1B1): 7.5%

C[C@]12CC[C@@H]3c4ccc(O)cc4CC[C@H]3[C@@H]1C[C@@H](CCCBr)[C@@H]2O
inhibition at 0.75 h, 3 µM (CYP1B1): 2%

C[C@]12CC[C@@H]3c4cc(Br)c(O)c(Br)c4CC[C@H]3[C@@H]1CC[C@@H]2O
inhibition at 0.75 h, 3 µM (CYP1B1): 1%

C[C@]12CC[C@@H]3c4ccccc4CC[C@H]3[C@@H]1CCC2=O
inhibition at 0.75 h, 3 µM (CYP1B1): 11.3%

C[C@]12CC[C@@H]3c4cc(Br)c(O)cc4CC[C@H]3[C@@H]1CC[C@@H]2O
inhibition at 0.75 h, 3 µM (CYP1B1): 22.6%

C[C@]12CC[C@@H]3c4ccc(OC(N)=O)cc4CC[C@H]3[C@@H]1CCC2=O
inhibition at 0.75 h, 3 µM (CYP1B1): 9.9%

COc1cc2c(cc1OS(N)(=O)=O)CC[C@@H]1[C@@H]2CC[C@]2(C)[C@@H](O)CC[C@@H]12
inhibition at 0.75 h, 3 µM (CYP1B1): 23.8%

C[C@]12CC[C@@H]3c4ccc(O)c(Br)c4CC[C@H]3[C@@H]1CC[C@@H]2O
inhibition at 0.75 h, 3 µM (CYP1B1): 29%

Cc1cc2c(cc1O)CC[C@@H]1[C@@H]2CC[C@]2(C)[C@@H](O)CC[C@@H]12
inhibition at 0.75 h, 3 µM (CYP1B1): 1%

C[C@]12CC[C@@H]3c4ccc(OS(=O)(=O)O)cc4CC[C@H]3[C@@H]1CC[C@@H]2O
inhibition at 0.75 h, 3 µM (CYP1B1): 0.9%

COc1cc2c(cc1OS(N)(=O)=O)CC[C@@H]1[C@@H]2CC[C@@]2(C)[C@H]1CC[C@@]2(O)Cc1ccccc1
inhibition at 0.75 h, 3 µM (CYP1B1): 7.7%

C#C[C@]1(O)CC[C@H]2[C@@H]3CCc4c(ccc(O)c4Br)[C@H]3CC[C@@]21C
inhibition at 0.75 h, 3 µM (CYP1B1): 7.5%

C[C@]12CC[C@@H]3c4ccc(C5CO5)cc4CC[C@H]3[C@@H]1CCC2=O (stereo not given in full)
inhibition at 0.75 h, 3 µM (CYP1B1): 12.4%

CCCCCCCN(C=O)[C@H]1CC[C@H]2[C@@H]3CCc4cc(O)ccc4[C@H]3CC[C@]12C
inhibition at 0.75 h, 3 µM (CYP1B1): 0%

C[C@]12CC[C@@H]3c4ccc(O)cc4C(=O)C[C@H]3[C@@H]1CC[C@@H]2O
inhibition at 0.75 h, 3 µM (CYP1B1): 9.7%

C[C@]12CC[C@@H]3c4ccc(OS(N)(=O)=O)cc4CC[C@H]3[C@@H]1CC[C@@]2(O)CN1CCN(C(=O)[C@H](Cc2ccccc2)NC(=O)CCC2CCCC2)CC1
inhibition at 0.75 h, 3 µM (CYP1B1): 14.9%

Cc1ccc(S(=O)(=O)/N=S(\C)c2ccc3c(c2)CC[C@@H]2[C@@H]3CC[C@]3(C)C(=O)CC[C@@H]23)cc1 (stereo not given in full)
inhibition at 0.75 h, 3 µM (CYP1B1): 0.1%

C[C@]12CC[C@@H]3c4ccc(OS(N)(=O)=O)cc4CC[C@H]3[C@@H]1C[C@H](CCCNC(=O)C(Cc1ccccc1)NC(=O)Cc1ccccc1)[C@@H]2O (stereo not given in full)
inhibition at 0.75 h, 3 µM (CYP1B1): 22.8%

C[C@]12CC[C@@H]3c4ccc([N+](C)(C)[O-])cc4CC[C@H]3[C@@H]1CCC2=O
inhibition at 0.75 h, 3 µM (CYP1B1): 36.6%

C[C@]12CC[C@@H]3c4cc([N+](=O)[O-])c(O)c([N+](=O)[O-])c4CC[C@H]3[C@@H]1CC[C@@H]2O
inhibition at 0.75 h, 3 µM (CYP1B1): 11.4%

C[C@]12CC[C@@H]3c4ccccc4C(=O)C[C@H]3[C@@H]1CCC2=O
inhibition at 0.75 h, 3 µM (CYP1B1): 16%

COc1cc2c(cc1O)CC[C@@H]1[C@@H]2CC[C@@]2(C)[C@H]1CC[C@@]2(O)Cc1ccccc1
inhibition at 0.75 h, 3 µM (CYP1B1): 0%

C#C[C@]1(O)CC[C@H]2[C@@H]3CCc4cc(O)c(Br)cc4[C@H]3CC[C@@]21C
inhibition at 0.75 h, 3 µM (CYP1B1): 8.4%

C[C@]12CC[C@@H]3c4ccc(OS(N)(=O)=O)cc4CC[C@H]3[C@@H]1C[C@H](CCCNC(=O)C1CCCN1C(=O)Cc1ccccc1)[C@@H]2O (stereo not given in full)
inhibition at 0.75 h, 3 µM (CYP1B1): 21.4%

C[C@]12CC[C@@H]3c4ccccc4C(O)C[C@H]3[C@@H]1CC[C@@H]2O (stereo not given in full)
inhibition at 0.75 h, 3 µM (CYP1B1): 20%

C[C@]12CC[C@@H]3c4ccc(NC(=O)O)cc4CC[C@H]3[C@@H]1CCC2=O
inhibition at 0.75 h, 3 µM (CYP1B1): 8.9%

CCCCCCCN(C=O)[C@H]1CC[C@H]2[C@@H]3CCc4cc(OC)ccc4[C@H]3CC[C@]12C
inhibition at 0.75 h, 3 µM (CYP1B1): 3.5%

C[C@]12CC[C@@H]3c4ccc(O)cc4CC[C@H]3[C@@H]1C[C@H](CCCNC(=O)C(Cc1ccccc1)NC(=O)Cc1ccccc1)[C@@H]2O (stereo not given in full)
inhibition at 0.75 h, 3 µM (CYP1B1): 7.7%

C[C@]12CC[C@@H]3c4ccc(N)cc4CC[C@H]3[C@@H]1CCC2=O
inhibition at 0.75 h, 3 µM (CYP1B1): 16.2%

C[C@]12CC[C@@H]3c4ccc(C(=O)O)cc4CC[C@H]3[C@@H]1CCC2=O
inhibition at 0.75 h, 3 µM (CYP1B1): 11.5%

C[C@]12CC[C@@H]3c4ccc(OCCBr)cc4CC[C@H]3[C@@H]1CC[C@@H]2O
inhibition at 0.75 h, 3 µM (CYP1B1): 11.1%

C[C@]12CC[C@@H]3c4ccc(S)cc4CC[C@H]3[C@@H]1CCC2=O
inhibition at 0.75 h, 3 µM (CYP1B1): 61.1 to 61.6% | pIC50 (Cytochrome P450 1B1): 5.47

CCc1ccc2c(c1)CC[C@@H]1[C@@H]2CC[C@]2(C)C(=O)CC[C@@H]12
inhibition at 0.75 h, 3 µM (CYP1B1): 42.8%

CC(=O)c1ccc(C(=O)N2CCCC2C(=O)NCCCCCCCCCCC[C@@H]2Cc3cc(O)ccc3[C@H]3CC[C@]4(C)[C@@H](O)CC[C@H]4[C@H]23)cc1 (stereo not given in full)
inhibition at 0.75 h, 3 µM (CYP1B1): 22.1%

CNS(=O)(=O)Oc1cc2c(cc1OS(=O)(=O)NC)[C@H]1CC[C@]3(C)C(=O)CC[C@H]3[C@@H]1CC2
inhibition at 0.75 h, 3 µM (CYP1B1): 30.3%

CCS(=O)(=O)Oc1ccc2c(c1)CC[C@@H]1[C@@H]2CC[C@]2(C)C(=O)CC[C@@H]12
inhibition at 0.75 h, 3 µM (CYP1B1): 0.3%

CCCCCCCN[C@H]1CC[C@H]2[C@@H]3CCc4ccc(OC)cc4[C@H]3CC[C@]12C
inhibition at 0.75 h, 3 µM (CYP1B1): 9.4%

COc1cc2c(cc1O)CC[C@@H]1[C@@H]2CC[C@]2(C)C(=O)CC[C@@H]12
inhibition at 0.75 h, 3 µM (CYP1B1): 13.2%

C[C@]12CC[C@@H]3c4ccc(O)cc4CC[C@H]3[C@@H]1CC[C@@]21CCC(=O)O1
inhibition at 0.75 h, 3 µM (CYP1B1): 13.9%

COc1cc2c(cc1O)CC[C@@H]1[C@@H]2CC[C@]2(C)[C@@H](O)CC[C@@H]12 [2-METHOXYESTRADIOL]
inhibition at 0.75 h, 3 µM (CYP1B1): 4.4%

O=c1cc(-c2ccccc2)oc2c1ccc1ccccc12 [ALPHA-NAPHTHOFLAVONE]
inhibition at 0.75 h, 3 µM (CYP1B1): 89.2%

C[C@]12CC[C@@H]3c4ccc(OS(N)(=O)=O)cc4CC[C@H]3[C@@H]1CCC2=O [EMATE]
inhibition at 0.75 h, 3 µM (CYP1B1): 8.6%

— ChEMBL document CHEMBL3877258, “Targeting cytochrome P450 (CYP) 1B1 with steroid derivatives” (Bioorg Med Chem Lett, 2016)
